The source of these data is US20230241211A1, “BISPECIFIC ANTIBODY AGAINST CD3 AND CD20 IN COMBINATION THERAPY FOR TREATING DIFFUSE LARGE B-CELL LYMPHOMA” (GENMAB A/S, priority 2022, published 2023).

Series [1] deals with T cells. Put plainly: T-cell activation with immobilized anti-CD3 in presence or absence of lenalidomide. It counts as cell-based. As to conditions: CD3 crosslinking with immobilized anti-CD3, lenalidomide 5 or 50 μM, 3 days; compared to no lenalidomide. On the procedure: T cells were pre-incubated with assay medium or lenalidomide in the absence or presence of CD3 crosslinking by immobilized anti-CD3 for 3 days (as indicated on the x-axes), after which upregulation of CD69, CD25, PD-1 and LAMP-1 on CD4^+ and CD8^+ T cells was determined by flow cytometry. Data shown are geomean fluorescence intensities (FI) for four donors (each circle represents one condition for one donor). Pre-incubation conditions are shown on the x-axis.
(§1) Briefly, T cells were activated with immobilized anti-CD3 in the presence (5 or 50 μM) or absence of lenalidomide for 3 days. […] T cells that were activated in the presence or absence of lenalidomide were subsequently tested for their cytotoxic capacity in response to epcoritamab.

In series [2] the test system is CD20-expressing Daudi cells. In words: Epcoritamab-induced T-cell-mediated cytotoxicity assay with lenalidomide-pretreated T cells. The format is cell-based. The note with it: T cells pre-treated with lenalidomide (5 or 50 μM) and anti-CD3 for 3 days, Daudi target cells, E:T ratio 2:1. The protocol: T cells were incubated with (5 or 50 μM) or without lenalidomide in the absence or presence of immobilized anti-CD3 for 3 days. […] Data shown are average percentages cytotoxicity ±SD of duplicates, normalized to medium control (no antibody, no lenalidomide).
as §1

In series [3] the test system is relapsed or refractory (R/R) B-NHL; highly refractory large B-cell lymphoma. The note with it: epcoritamab monotherapy, n=157, cited from earlier work.
[4] abbreviates: highly refractory large B-cell lymphoma.

Regarding `Nc1cccc2c1CN(C1CCC(=O)NC1=O)C2=O` (stereo not shown) [lenalidomide, 3-(4-Amino-1-oxo-1,3-dihydro-2H-isoindol-2-yl) piperidine-2,6-dione], the “T-cell activation (upregulation of activation markers CD69, CD25 on the T cell surface, release of granzyme B and IFNγ)” value in series [1] is “increased T-cell activation”.
On to “epcoritamab: IgG1 bispecific CD3×CD20 antibody; heavy/light chain pairs SEQ ID NOs: 24/25 and 26/27; CAS 2134641-34-0”, for which the “activity at lower epcoritamab concentrations” value in series [2] was “higher activity at lower epcoritamab concentrations”. Besides, the maximum percent cytotoxicity result in series [2] (versus T cells without lenalidomide) is “Higher maximum percent cytotoxicity”. Further, in series [3] (setting [4]), the “complete response (CR) rate” value is recorded as 39%, the “median duration of response (DOR)” value was 12 months and the “overall response rate (ORR)” value is reported as 63%. Besides, in series [3], the safety profile result was “manageable safety profile”.
